Experiments:
rat native NET = biological target: T1, rat native NET (Rattus norvegicus, UniProt Q9WTR4); assay: [3H]-nisoxetine radioligand binding, rat cortical membranes; conditions: mean (95% confidence intervals), read-out: Transporter Binding: pKi, NET (converted)
T1 construct: other: Rat cortical membranes; mean (95% confidence intervals)
Description: The in vitro pharmacology of 4-[2-(2,4,6-trifluorophenoxymethyl)phenyl]-piperidine at human recombinant and rat native monoamine transporters was characterized as described in Smith et al., Inter. J. Neuropsychopharmcol. (2015) 1-11; and Tsuruda et al., J. Pharmacol. Toxicol. Meth. (2010) 61:192-204. See also, e.g., U.S. Pat. No. 8,304,432 B2 and U.S. Pat. No. 8,304,433 B2. Radioligands were sourced commercially (Perkin Elmer LifeSciences or GE Healthcare Life Sciences).
Briefly, membranes prepared from HEK293 (Human Embryonic Kidney 293) or CHO-K1 (Chinese Hamster Ovary-K1) cells stably transfected with human recombinant SERT (HEK293-hSERT), NET (HEK293-hNET), or DAT (CHO-KT-hDAT) were incubated for 1 hr at 22° C. in the absence, or presence, of 4-[2-(2,4,6-trifluorophenoxymethyl)phenyl]piperidine and [^3H]-citalopram (1.0 nM) for SERT, [^3H]-nisoxetine (2.0 nM) for NET, and [^3H]-WIN35428 (3.0 nM) for DAT in 50 mM Tris-HCl, 120 mM NaCl, 5 mM KCl, 0.025% BSA, 100 μM ascorbic acid, pH 7.4. Rat cortical membrane preparations were incubated with [^3H]-citalopram (2.0 nM) for SERT or [3H]-nisoxetine (4.0 nM) for NET for 1 hr at 22° C. […] Binding and uptake assays were terminated by rapid filtration and radioactivity determined by liquid scintillation spectroscopy.

anesthetized rats = assay: Cardiovascular model in anesthetized rat: intrinsic effect on MAP and HR; assay type: in vivo; conditions: IP
Description: These studies were conducted to assess the effect of a single administration of 4-[2-(2,4,6-trifluorophenoxymethyl)phenyl]piperidine on heart rate (HR) and mean arterial pressure (MAP) in anesthetized rats.
Normotensive male Sprague-Dawley rats weighing between 250-350 g were anesthetized with an intraperitoneal injection (IP) of thiobutabarbital (Inactin). All animals were kept under complete anesthesia (i.e., absence of response to toe pinch test) for the surgery and for the duration of the study. The right common carotid artery and jugular vein were isolated and catheterized. The trachea was intubated to keep the airway open during the study. After completion of surgery, the arterial catheter was connected to a pressure transducer and baseline blood pressure [Systolic (SBP), Mean Arterial (MAP) and Diastolic (DBP)] and heart rate (HR) were recorded using the Notocord-HEM data acquisition system. Following at least 60 min of baseline (i.e., the last 10 min was stable), vehicle (10% Tween20, 2 mL/kg, IP) was administered and any potential effect was monitored for at least 10 min. After this period, rats were injected with either vehicle or 4-[2-(2,4,6-trifluorophenoxymethyl)phenyl]piperidine ([…], 2 mL/kg, IP) and changes in MAP and HR were monitored for 25 min. […]

CYP2D6 = CYP2D6 (Homo sapiens, UniProt P10635); conditions: cited from earlier work
CYP2D6, sequence (P10635 whole entry): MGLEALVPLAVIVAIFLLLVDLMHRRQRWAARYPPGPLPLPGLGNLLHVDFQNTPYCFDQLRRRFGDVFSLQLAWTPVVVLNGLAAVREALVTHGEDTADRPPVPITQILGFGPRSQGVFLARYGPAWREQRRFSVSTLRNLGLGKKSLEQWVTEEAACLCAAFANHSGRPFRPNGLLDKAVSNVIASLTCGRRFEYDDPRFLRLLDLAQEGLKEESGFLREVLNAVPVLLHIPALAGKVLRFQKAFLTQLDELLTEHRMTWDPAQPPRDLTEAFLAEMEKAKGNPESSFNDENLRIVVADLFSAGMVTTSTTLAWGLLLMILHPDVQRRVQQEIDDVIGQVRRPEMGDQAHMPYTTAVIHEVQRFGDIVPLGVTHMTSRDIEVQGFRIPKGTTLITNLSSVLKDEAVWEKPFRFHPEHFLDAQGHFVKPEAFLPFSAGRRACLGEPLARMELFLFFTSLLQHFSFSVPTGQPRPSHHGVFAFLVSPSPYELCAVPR

T1 sequence (Q9WTR4 1-597): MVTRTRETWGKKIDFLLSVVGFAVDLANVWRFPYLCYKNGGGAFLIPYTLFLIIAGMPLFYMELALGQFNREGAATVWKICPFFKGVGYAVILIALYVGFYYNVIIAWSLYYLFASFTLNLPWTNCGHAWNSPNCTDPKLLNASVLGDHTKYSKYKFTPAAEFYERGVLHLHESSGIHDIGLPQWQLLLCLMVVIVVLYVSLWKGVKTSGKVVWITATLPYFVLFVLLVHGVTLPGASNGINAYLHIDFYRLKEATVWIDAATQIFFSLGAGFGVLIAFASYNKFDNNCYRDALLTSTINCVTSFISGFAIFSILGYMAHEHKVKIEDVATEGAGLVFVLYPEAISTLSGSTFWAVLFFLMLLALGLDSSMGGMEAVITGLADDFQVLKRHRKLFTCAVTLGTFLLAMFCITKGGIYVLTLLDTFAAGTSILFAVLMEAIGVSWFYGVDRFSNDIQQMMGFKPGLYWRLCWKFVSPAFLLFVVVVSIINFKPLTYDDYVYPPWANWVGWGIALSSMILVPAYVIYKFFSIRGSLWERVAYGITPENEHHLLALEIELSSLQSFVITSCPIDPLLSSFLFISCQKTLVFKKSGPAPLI

Fc1cc(F)c(OCc2ccccc2C2CCNCC2)c(F)c1 [4-[2-(2,4,6-trifluorophenoxymethyl)phenyl]piperidine]
Ki (rat native NET): 2 nM
HR EC25 (free plasma concentration that produced a change in HR of 25 bpm) (anesthetized rats): 8.6 nM
MAP EC10 (free plasma concentration that produced a change in MAP of 10 mm Hg) (anesthetized rats): 101.4 nM
reduction of metabolism by chemical inhibition of CYP2D6 (CYP2D6): 7%

From patent US10238642B2, “Methods for treating neurogenic orthostatic hypotension” (Theravance Biopharma R&D IP, LLC, priority 2016, dated 2019)
